# Experimental data from the supplement of paper PMC3974653.
# Where a name gives a salt, the structure may show the parent alone.
# Tested on: MTT (mouse pheochromocytoma)
# Assay: IC50 of cell viability (ATP content)
# Settings: (24 or 48 h)
# How it was run: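 MTT mouse pheochromocytoma cells were seeded into white 1536-well plates at 5 µl per well from a 200,000 cells/ml suspension in DMEM with 5% FBS and 1% horse serum, then cultured overnight at 37°C, 5% CO2. A pintool added 23 nl of library compound in DMSO at 8 concentrations (final 0.5 nM to 46 µM) for 24 or 48 hrs, and CellTiter-Glo ATP luminescence was read after 15 minutes. Signals were scaled so that positive-control wells equalled 100% and DMSO wells 0%. IC50 values were derived by fitting a four-parameter logistic curve.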
row,SMILES,IC50 of cell viability
1,"O=[N+]([O-])c1ccc(F)c([N+](=O)[O-])c1 [1-Fluoro-2,4-dinitrobenzene]",> 46 µM
2,"CCCCCCCCCC(CC)c1ccc(S(=O)(=O)[O-])cc1.[Na+] (centres undefined) [Dodecylbenzenesulfonic acid, sodium salt]",> 46 µM
3,Nc1cccc2c1CN(C1CCC(=O)NC1=O)C2=O (centres undefined) [LENALIDOMIDE],> 46 µM
4,NCCN.[Cl-].[Cl-].[Pt+2] [Dichloro(ethylenediamine)platinum(II)],> 46 µM
5,CC(=O)O[C@@H](C)C[N+](C)(C)C [Methacholine chloride],> 46 µM
6,O=C(O)c1ccccc1O [Salicylic acid],> 46 µM
7,O=C([O-])C1=NN(c2ccc(S(=O)(=O)[O-])cc2)C(=O)/C1=N\Nc1ccc(S(=O)(=O)[O-])cc1 [Tartrazine],> 46 µM
8,CC(=O)[O][Al]([OH])[O]C(C)=O [Aluminum subacetate],> 46 µM
9,C#C[C@]1(O)CC[C@H]2[C@@H]3CCC4=Cc5oncc5C[C@]4(C)[C@H]3CC[C@@]21C [Danazol],> 46 µM
10,CC1(C)SC2C(NC(=O)C(N)c3ccccc3)C(=O)N2C1C(=O)O (centres undefined) [Ampicillin A],> 46 µM
11,CC1=C(C)C(=O)C(C(CCCCCC(=O)O)c2ccccc2)=C(C)C1=O (centres undefined) [SERATRODAST],> 46 µM
12,CC(=O)N[C@@H]1C(O)OC(CO)C(O)C1O (some centres undefined) [ACETYLGLUCOSAMINE],> 46 µM
13,CC[C@@H]1C(=O)OC[C@@H]1Cc1cncn1C [PILOCARPINE],> 46 µM
14,CN[C@@H]1C[C@@H](c2ccc(Cl)c(Cl)c2)c2ccccc21.Cl [Indatraline hydrochloride],> 46 µM
15,O=P([O-])(O)C(Sc1ccc(Cl)cc1)P(=O)([O-])O [TILUDRONATE DISODIUM],> 46 µM
16,CC1(C)S[C@@H]2[C@H](NC(=O)C(C(=O)Oc3ccc4c(c3)CCC4)c3ccccc3)C(=O)N2[C@H]1C(=O)O (some centres undefined) [Carbenicillin indanyl],> 46 µM
17,O=C(C[S+]([O-])C(c1ccccc1)c1ccccc1)NO (centres undefined) [ADRAFINILUM],> 46 µM
18,"CN(C)Cc1ccccc1 [N,N-Dimethylbenzylamine]",> 46 µM
19,Cc1ccccc1OCC(O)CNCCOc1ccc(C(N)=O)cc1 (centres undefined) [TOLAMOLOLUM],> 46 µM
20,CCOc1ccc2nc([S+](N)(=O)[O-])sc2c1 [ETHOXZOLAMIDE],> 46 µM
21,O=C1/C(=C2\Nc3ccc([S+](=O)([O-])O)cc3C2=O)Nc2ccc([S+](=O)([O-])O)cc21 [Indigo carmine],> 46 µM
22,Cc1ncc([N+](=O)[O-])n1CCO [METRONIDAZOLE],> 46 µM
23,O=[N+]([O-])c1cccc([S+](=O)([O-])NCCN[S+](=O)([O-])c2cccc([N+](=O)[O-])c2)c1 [Dinsed],> 46 µM
24,C[C@]12CCC3C(CCC4=CC(=O)CC[C@@H]43)C1CCC2O (some centres undefined) [19-Norandrostenolone],> 46 µM
25,CCC(C)[C@@H](N)C(=O)O (some centres undefined) [ISOLEUCINE],> 46 µM
26,COC1=C(OC(F)F)C=CC(=C1)C/2=N/NC(=O)/C=C2 [Zardaverine],> 46 µM
27,O=C(O)CCCCCCNC1c2ccccc2CCc2ccccc21 [Amineptine],> 46 µM

row,SMILES,IC50 of cell viability
1,O=C(c1ccccc1)C(O)c1ccccc1 (centres undefined) [Benzoin],> 46 µM
2,"O=[N+]([O-])c1c(Cl)c(Cl)cc(Cl)c1Cl [2,3,5,6-Tetrachloronitrobenzene]",> 46 µM
3,C[C@@H]1C[C@H]2[C@@H]3CCC/4=C/C(=O)/C=C\[C@]4(C)[C@@]3(F)[C@@H](O)C[C@]2(C)[C@H]1C(=O)CO [Desoximetasone],> 46 µM
4,CCCCC(CC)CCC(CC(C)C)OS(=O)(=O)[O-] (centres undefined) [SODIUM TETRADECYL SULFATE],> 46 µM
5,CCCCC[C@H](O)/C=C/[C@H]1[C@H](O)CC(=O)[C@@H]1C/C=C\CCCC(=O)O [DINOPROSTONE],> 46 µM
6,CCN1C(=O)N[C@@H](c2ccccc2)C1=O [Ethotoin],> 46 µM
7,CC(C)N1CCN(c2ccc(OC[C@@H]3CO[C@@](Cn4cncn4)(c4ccc(Cl)cc4Cl)O3)cc2)CC1 [Terconazole],> 46 µM
8,NCCNC(=O)c1ccc(Cl)cn1 [LAZABEMIDE HYDROCHLORIDE],> 46 µM
9,NCc1ccccc1Sc1ccccc1CO [Bipenamol hydrochloride],> 46 µM
10,CC1=C(C/C=C(\C)CCCC(C)CCCC(C)CCCC(C)C)C(=O)c2ccccc2C1=O (centres undefined) [Phytonadione],> 46 µM
11,N[C@H]([C@@H]1C\C(=N/O1)Cl)C(O)=O [ACIVICIN],> 46 µM
12,CN1C(=S)CN=C(c2ccccc2)c2cc(Cl)ccc21 [Sulazepam],> 46 µM
13,Nc1ccc([S+](=O)([O-])Nc2nccs2)cc1 [Sulfathiazole],> 46 µM
14,CCCCCCOc1ccccc1C(N)=O [EXALAMIDE],> 46 µM
15,O=C\1OC2=C(C=CC=C2)\C=C1 [Coumarin],> 46 µM
16,O=c1[nH]c(=O)n(C2CCCO2)cc1F (centres undefined) [TEGAFUR],> 46 µM
17,N[C@H](CO)C(=O)O [D-SERINE],> 46 µM
18,NC1=NC(=O)N2CC12 (centres undefined) [IMEXON],> 46 µM
19,Cc1ccc(/C=C2/C(=O)C3(C)CCC2C3(C)C)cc1 (centres undefined) [ENZACAMENE],> 46 µM
20,CC1CCC(NC(=O)N(CCCl)N=O)CC1 (centres undefined) [SEMUSTINE],> 46 µM
21,CC(=O)Oc1ccc(C)cc1 [CRESYL ACETATE],> 46 µM
22,N=C(N)NC[C@@H]1COC2(CCCCC2)O1 [Guanadrel sulfate],> 46 µM
23,CC/1=C(\CCN2CCC(CC2)=C(C3=CC=C(F)C=C3)C4=CC=C(F)C=C4)C(=O)N/5\C=C/SC5=N1 [Ritanserin],> 46 µM
24,NC/1=N/C(=O)N/C=C1F [Flucytosine],> 46 µM
25,CN1CCCCC1CCN1c2ccccc2Sc2ccc(S(C)=O)cc21 (centres undefined) [MESORIDAZINE],> 46 µM
26,[H]C1(CN)CC[C@@]([H])(CC1)C(=O)OC2=CC=C(CCC(O)=O)C=C2 (centres undefined) [Cetraxate hydrochloride],> 46 µM
27,Nc1nc(/C(=C/CC(=O)O)C(=O)NC2C(=O)N3C(C(=O)O)=CCSC23)cs1 (centres undefined) [CEFTIBUTEN],> 46 µM
